Consider 18 molecules from PubChem BioAssay (NCI).

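Where inhibition never reached the appropriate level, the endpoint shown equals the highest concentration tested. Otherwise, values were interpolated linearly from a five-concentration, 48-hour dose response in 96-well plates. At the TGI there is no net growth.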 Where only a bound is given, the exact number is not on record here.

Among the test systems are DMS 114 small cell lung; OVCAR-5 ovarian; LOX IMVI melanoma; A498 renal; HCT-116 colon; SK-MEL-5 melanoma; DMS 273 small cell lung; T-47D breast; PC-3 prostate; LXFL 529 NSCLC.
Assay in all cases: DTP human tumour cell line panel, 48 h

The TGI is the concentration giving total growth inhibition. A low value points to greater sensitivity of the cells.

On to `CNC(=O)C(C)C1CCC2(C)C=CC(=O)C(C)=C2C1O` (stereo not given), for which the TGI with DMS 114 small cell lung is over 100 µM; in the experiment with OVCAR-5 ovarian it was over 100 µM; in the experiment with LOX IMVI melanoma it was over 100 µM; in the experiment on A498 renal, over 100 µM; with HCT-116 colon, over 100 µM; in the experiment with SK-MEL-5 melanoma, over 60.1 µM. Besides, the TGI in the experiment on DMS 273 small cell lung is over 58.1 µM.
Turning to `O=c1[nH][nH]c(=O)n1Cc1ccccc1Cn1c(=O)[nH][nH]c1=O`, the TGI with T-47D breast, in the experiment on OVCAR-5 ovarian, in the experiment on LOX IMVI melanoma, in the experiment on PC-3 prostate, with A498 renal and with HCT-116 colon was over 100 µM throughout. Also, the total growth inhibition concentration (TGI) with SK-MEL-5 melanoma is over 100 µM.
`CCNC(=S)N/N=C/c1cc([N+](=O)[O-])ccc1O`: the TGI in the experiment on T-47D breast is over 100 µM; in the experiment on OVCAR-5 ovarian it was over 100 µM; in the experiment on LOX IMVI melanoma, over 100 µM; in the experiment on PC-3 prostate, over 100 µM; in the experiment with A498 renal, 69.1 µM; in the experiment with HCT-116 colon, 40.8 µM. In the experiment with SK-MEL-5 melanoma, the TGI was over 100 µM.
`COC(=O)c1cc2c(n1S(=O)(=O)c1ccc(C)cc1)C(=O)C(=O)c1[nH]cc(C(=O)OCc3ccccc3)c1-2`: the TGI stood at 0.975 µM in the experiment with T-47D breast; 1.02 µM in the experiment on OVCAR-5 ovarian; 0.176 µM in the experiment with LOX IMVI melanoma; 1.13 µM in the experiment on PC-3 prostate; 3.26 µM with A498 renal; 0.247 µM in the experiment on HCT-116 colon. The molecule further registered a TGI in the experiment with SK-MEL-5 melanoma of 0.064 µM.
For the molecule `Clc1cc(OC2C3CC4CC(C3)CC2C4)nc(Cl)n1` (stereo not given), the TGI was 53.4 µM in the experiment on T-47D breast; 44.2 µM in the experiment with OVCAR-5 ovarian; 14.4 µM with LOX IMVI melanoma; 37.9 µM in the experiment with PC-3 prostate; 39.6 µM in the experiment with A498 renal; 27.5 µM in the experiment on HCT-116 colon. Moreover, in the experiment on SK-MEL-5 melanoma, the TGI came to 32.1 µM.
As for `O=C1/C(=C/c2ccc(O)cc2)CC/C1=C\c1ccc(O)cc1`, the TGI with T-47D breast, in the experiment on OVCAR-5 ovarian, with LOX IMVI melanoma, in the experiment on PC-3 prostate, in the experiment with A498 renal and in the experiment on HCT-116 colon was over 100 µM each time. Further, in the experiment with SK-MEL-5 melanoma, the TGI was over 100 µM.
On to `CC(N)Cc1ccc(C(=O)Cl)cc1` (stereo not given), for which the TGI with DMS 114 small cell lung, in the experiment on LXFL 529 NSCLC, with LOX IMVI melanoma, with A498 renal, with HCT-116 colon and with SK-MEL-5 melanoma was over 100 µM throughout.
With `O=C(O)c1cccc2c1/C(=N/Nc1ccccc1)CC2`, the TGI in the experiment on T-47D breast, in the experiment on OVCAR-5 ovarian, in the experiment with LOX IMVI melanoma, in the experiment with PC-3 prostate, in the experiment with A498 renal and with HCT-116 colon was over 100 µM each time. The same molecule had a TGI in the experiment on SK-MEL-5 melanoma of over 100 µM.
`O=[N+]([O-])C(=C1NCCN1)/C(Cl)=C(\Cl)Br`: the TGI in the experiment on T-47D breast is 40.6 µM; in the experiment with OVCAR-5 ovarian, over 100 µM; with LOX IMVI melanoma, 33.4 µM; with PC-3 prostate, over 100 µM; in the experiment on A498 renal, over 63.4 µM; in the experiment on HCT-116 colon it was over 73.2 µM. In the experiment with SK-MEL-5 melanoma, the TGI is over 100 µM.
Take `COc1ccc(C(OCC2OC(n3cc(C)c(=O)[nH]c3=O)CC2n2cc(Cn3cc(I)c(=O)[nH]c3=O)nn2)(c2ccccc2)c2ccccc2)cc1` (stereo not given): the TGI in the experiment with T-47D breast, with OVCAR-5 ovarian, with LOX IMVI melanoma, in the experiment on PC-3 prostate, in the experiment on A498 renal and in the experiment on HCT-116 colon was over 100 µM each time. The molecule also had a TGI in the experiment on SK-MEL-5 melanoma of over 100 µM.
As to `Cc1ccc(SCC(CSCCO)OCn2cnc3c2NC(N)=NC32OCCO2)cc1` (stereo not given), the TGI in the experiment with T-47D breast, in the experiment on OVCAR-5 ovarian, in the experiment with LOX IMVI melanoma, in the experiment on PC-3 prostate, with A498 renal and in the experiment on HCT-116 colon was over 100 µM in each case. In addition, the TGI in the experiment on SK-MEL-5 melanoma is over 100 µM.
`CN1CCN([C@H]2C[C@H]3[C@@H]4CC=C5C[C@@H](O)CC[C@]5(C)[C@H]4CC[C@]3(C)C2=O)CC1`: the TGI in the experiment on T-47D breast, with OVCAR-5 ovarian, in the experiment on LOX IMVI melanoma, in the experiment on PC-3 prostate, in the experiment with A498 renal and in the experiment with HCT-116 colon was over 100 µM each time. This molecule also gave a TGI in the experiment on SK-MEL-5 melanoma of over 100 µM.
For `CCOC(=O)c1c2ccccc2n2c(N)c(C(N)=O)nnc12`, the TGI in the experiment on T-47D breast is over 100 µM; in the experiment with OVCAR-5 ovarian, over 100 µM; in the experiment with LOX IMVI melanoma, over 100 µM; in the experiment on PC-3 prostate it was over 100 µM; in the experiment on A498 renal it was 71 µM; with HCT-116 colon, over 100 µM. This molecule also yielded a TGI in the experiment with SK-MEL-5 melanoma of over 100 µM.
For the molecule `Oc1cccc2c(Cl)ccnc12`, the total growth inhibition concentration (TGI) in the experiment on T-47D breast is 48.2 µM; in the experiment on OVCAR-5 ovarian, over 50.4 µM; in the experiment with LOX IMVI melanoma, 19.6 µM; in the experiment with PC-3 prostate, over 100 µM; in the experiment with A498 renal it was over 43.5 µM; in the experiment on HCT-116 colon it was 15.2 µM. Further, the TGI in the experiment on SK-MEL-5 melanoma worked out at 14.8 µM.
For the molecule `COc1c(C)c(C/C=C(\C)CCCCO[Si](c2ccccc2)(c2ccccc2)C(C)(C)C)c(OC)c(OC)c1OC`, the TGI with T-47D breast was over 100 µM; with OVCAR-5 ovarian, over 46.4 µM; with LOX IMVI melanoma, 58.3 µM; with PC-3 prostate, over 100 µM; in the experiment with A498 renal it was over 100 µM; in the experiment on HCT-116 colon it was over 46.4 µM. The molecule further registered a TGI with SK-MEL-5 melanoma of 38.6 µM.
With `C=C(C1=CC(=O)C(C)(C)O1)[C@@H]1CC=C([C@@H]2CC[C@H]3[C@@]2(C)CC[C@H]2C(C)(C)C(=O)[C@H](O)C[C@]32C)[C@H](O)O1`, the TGI in the experiment on T-47D breast worked out at 3.41 µM; in the experiment on OVCAR-5 ovarian, 28 µM; with LOX IMVI melanoma it was 3.45 µM; with PC-3 prostate, 2.68 µM; in the experiment on A498 renal, 9.89 µM; with HCT-116 colon it was 3 µM. In addition, the TGI in the experiment on SK-MEL-5 melanoma amounted to 24.1 µM.
Regarding `O=C(CCC(=O)c1ccc(Cl)cc1)NO`, the TGI in the experiment on T-47D breast, with OVCAR-5 ovarian, with LOX IMVI melanoma, in the experiment on PC-3 prostate, with A498 renal and with HCT-116 colon was over 100 µM throughout. Moreover, in the experiment on SK-MEL-5 melanoma, the total growth inhibition concentration (TGI) is over 100 µM.
For `CNC(=O)OCC1=C(COC(=O)NC)C(C)N(c2ccc(OC)cc2)C1` (stereo not given), the TGI in the experiment on T-47D breast is over 100 µM; with OVCAR-5 ovarian, over 100 µM; with LOX IMVI melanoma it was over 100 µM; in the experiment on PC-3 prostate, over 100 µM; in the experiment on A498 renal, 1.74 µM; in the experiment on HCT-116 colon, over 100 µM. Moreover, the TGI in the experiment with SK-MEL-5 melanoma is over 100 µM.
